Patent US11147272B2, “Pyridone compounds and agricultural and horticultural fungicides comprising the same as active ingredients” (MITSUI CHEMICALS AGRO, INC., priority 2017, dated 2021)

Key:
Magnaporthe grisea = test: whole plant or invertebrate; format: in vivo; conditions: for Test A control value class: class of control value
Alternaia brassicicola = test: Test Example C: Alternaria sooty spot on cabbage; format: in vivo; conditions: for Test C control value class: class of control value
Excerpt: Seeds of a test plant (cabbage variety: Shikidori) were planted and cultivated until the cotyledons extended.
<Control Value> Control value=100{1−(n/3)}

Puccinia recondita = test: Test Example E: Brown rust on wheat; format: in vivo; conditions: for Test E control value class: class of control value
Phytophthora infestans = test: whole plant or invertebrate; format: in vivo; conditions: for Test F control value class: class of control value
Botrytis cinerea = test: Test Example B: Gray mold on tomato; conditions: for Test B control value class: class of control value
Plasmopara viticola = test: Test Example G: Downy mildew on vine; conditions: for Test G control value: 7 to 10 days after inoculation; for Test G control value class: Downy mildew on vine (Neomuscat), 2.5 ml/pot, assessed 7 to 10 days after inoculation
[1] = system: Colletotrichum orbiculare; test: Test Example H: Anthracnose on cucumber; conditions: for Test H control value: 6 to 10 days after inoculation; for Test H control value class: Anthracnose on cucumber (Sagami Hanjiro), 2.5 ml/pot, assessed 6 to 10 days after inoculation
[2] = system: Blumeria graminis f. sp. hordei; test: Test Example D: Powdery mildew on barley; conditions: for Test D control value class: class of control value
[3] = 250 ppm drug solution sprayed on test plant
[4] = 250 ppm drug solution sprayed (2.5 ml/pot), grape Neomuscat
[5] = 250 ppm drug solution sprayed (2.5 ml/pot), cucumber Sagami Hanjiro
[6] = Alternaria sooty spot on cabbage
[7] = Blast on rice, control value class
[8] = Alternaria sooty spot on cabbage, control value class
[9] = Brown rust on wheat, control value class
[10] = Late blight on tomato, control value class
[11] = Gray mold on tomato, control value class
[12] = Downy mildew on vine, 250 ppm spray
[13] = Anthracnose on cucumber, 250 ppm spray
[14] = Powdery mildew on barley, control value class

Compound: COc1cc(F)c(-c2c(C(C)(O)C(C)C)cc(Cl)c(=O)n2C)c(F)c1 (centres unmarked) [compound 487]
- Test A control value (Magnaporthe grisea; [3]): H (more than 50% control value)
- Test C control value (Alternaia brassicicola; [3]): H (more than 50% control value)
- Test E control value (Puccinia recondita; [3]): H (more than 50% control value)
- Test F control value (Phytophthora infestans; [3]): H (more than 50% control value)
- Test B control value (Botrytis cinerea; [3]): H (more than 50% control value)
- Test G control value (Plasmopara viticola; [4]): H (more than 50% control value)
- Test H control value [1, 5]: H (more than 50% control value)
- Test D control value [2, 3]: H (more than 50% control value)

Compound: CCn1c(-c2c(F)cc(OC)cc2F)c(CC(C)C)cc(Br)c1=O [compound 43]
- Test A control value class (Magnaporthe grisea; Blast on rice): H (more than 50% control value)
- Test C control value class (Alternaia brassicicola; [6]): H (more than 50% control value)
- Test E control value class (Puccinia recondita; Brown rust on wheat): H (more than 50% control value)
- Test F control value class (Phytophthora infestans; Late blight on tomato): L (50% or less control value)
- Test B control value class (Botrytis cinerea; Gray mold on tomato): H (more than 50% control value)
- Test G control value class (Plasmopara viticola; 250 ppm spray): H (more than 50% control value)
- Test H control value class ([1]; 250 ppm spray): H (more than 50% control value)
- Test D control value class ([2]; Powdery mildew on barley): H (more than 50% control value)

Compound: COc1cc(F)c(-c2c(C(C)(OC)C(C)C)cc(Cl)c(=O)n2C)c(F)c1 (centres unmarked) [compound 488]
- Test A control value (Magnaporthe grisea; [3]): H (more than 50% control value)
- Test C control value (Alternaia brassicicola; [3]): H (more than 50% control value)
- Test E control value (Puccinia recondita; [3]): H (more than 50% control value)
- Test F control value (Phytophthora infestans; [3]): L (50% or less control value)
- Test B control value (Botrytis cinerea; [3]): H (more than 50% control value)
- Test G control value (Plasmopara viticola; [4]): L (50% or less control value)
- Test H control value [1, 5]: H (more than 50% control value)
- Test D control value [2, 3]: L (50% or less control value)

Compound: CCc1cc(Br)c(=O)n(CC)c1-c1c(F)cc(OC)cc1F [compound 391]
- Test A control value (Magnaporthe grisea; [3]): H (more than 50% control value)
- Test C control value (Alternaia brassicicola; [3]): H (more than 50% control value)
- Test E control value (Puccinia recondita; [3]): H (more than 50% control value)
- Test F control value (Phytophthora infestans; [3]): L (50% or less control value)
- Test B control value (Botrytis cinerea; [3]): H (more than 50% control value)
- Test G control value (Plasmopara viticola; [4]): L (50% or less control value)
- Test H control value [1, 5]: H (more than 50% control value)
- Test D control value [2, 3]: L (50% or less control value)

Compound: CCCOC(C)(c1cc(Cl)c(=O)n(CC)c1-c1c(F)cc(OC)cc1F)C(C)C (centres unmarked) [compound 242]
- Test A control value (Magnaporthe grisea; [7]): L (50% or less control value)
- Test C control value (Alternaia brassicicola; [8]): H (more than 50% control value)
- Test E control value (Puccinia recondita; [9]): L (50% or less control value)
- Test F control value (Phytophthora infestans; [10]): L (50% or less control value)
- Test B control value (Botrytis cinerea; [11]): L (50% or less control value)
- Test G control value (Plasmopara viticola; [12]): L (50% or less control value)
- Test H control value [1, 13]: L (50% or less control value)
- Test D control value [2, 14]: L (50% or less control value)

Compound: CCOc1ccc(-c2c(CC(C)C)cc(Cl)c(=O)n2CC)c(F)c1 [compound 123]
- Test A control value class (Magnaporthe grisea; Blast on rice): H (more than 50% control value)
- Test C control value class (Alternaia brassicicola; [6]): H (more than 50% control value)
- Test E control value class (Puccinia recondita; Brown rust on wheat): H (more than 50% control value)
- Test F control value class (Phytophthora infestans; Late blight on tomato): L (50% or less control value)
- Test B control value class (Botrytis cinerea; Gray mold on tomato): H (more than 50% control value)
- Test G control value class (Plasmopara viticola; 250 ppm spray): H (more than 50% control value)
- Test H control value class ([1]; 250 ppm spray): H (more than 50% control value)
- Test D control value class ([2]; Powdery mildew on barley): H (more than 50% control value)

Compound: CCC(C)c1cc(Cl)c(=O)n(CC)c1-c1c(F)cc(F)cc1F (centres unmarked) [compound 33]
- Test A control value class (Magnaporthe grisea; Blast on rice): H (more than 50% control value)
- Test C control value class (Alternaia brassicicola; [6]): H (more than 50% control value)
- Test E control value class (Puccinia recondita; Brown rust on wheat): H (more than 50% control value)
- Test F control value class (Phytophthora infestans; Late blight on tomato): L (50% or less control value)
- Test B control value class (Botrytis cinerea; Gray mold on tomato): H (more than 50% control value)
- Test G control value class (Plasmopara viticola; 250 ppm spray): L (50% or less control value)
- Test H control value class ([1]; 250 ppm spray): H (more than 50% control value)
- Test D control value class ([2]; Powdery mildew on barley): H (more than 50% control value)

Compound: CCc1ccc(=O)n(CC)c1-c1c(F)cc(F)cc1F [compound 377]
- Test A control value (Magnaporthe grisea; [3]): L (50% or less control value)
- Test C control value (Alternaia brassicicola; [3]): L (50% or less control value)
- Test E control value (Puccinia recondita; [3]): L (50% or less control value)
- Test F control value (Phytophthora infestans; [3]): L (50% or less control value)
- Test B control value (Botrytis cinerea; [3]): L (50% or less control value)
- Test G control value (Plasmopara viticola; [4]): L (50% or less control value)
- Test H control value [1, 5]: H (more than 50% control value)
- Test D control value [2, 3]: H (more than 50% control value)

Compound: CCCc1ccc(=O)n(CC)c1-c1ccc(F)cc1Cl [compound 190]
- Test A control value (Magnaporthe grisea; [7]): H (more than 50% control value)
- Test C control value (Alternaia brassicicola; [8]): H (more than 50% control value)
- Test E control value (Puccinia recondita; [9]): H (more than 50% control value)
- Test F control value (Phytophthora infestans; [10]): L (50% or less control value)
- Test B control value (Botrytis cinerea; [11]): H (more than 50% control value)
- Test G control value (Plasmopara viticola; [12]): H (more than 50% control value)
- Test H control value [1, 13]: L (50% or less control value)
- Test D control value [2, 14]: H (more than 50% control value)

Compound: CCn1c(-c2ccc(OC)cc2Cl)c(CC(C)C)cc(Br)c1=O [compound 240]
- Test A control value (Magnaporthe grisea; [7]): H (more than 50% control value)
- Test C control value (Alternaia brassicicola; [8]): H (more than 50% control value)
- Test E control value (Puccinia recondita; [9]): H (more than 50% control value)
- Test F control value (Phytophthora infestans; [10]): L (50% or less control value)
- Test B control value (Botrytis cinerea; [11]): H (more than 50% control value)
- Test G control value (Plasmopara viticola; [12]): H (more than 50% control value)
- Test H control value [1, 13]: H (more than 50% control value)
- Test D control value [2, 14]: H (more than 50% control value)

Compound: CCCc1ccc(=O)n(CC)c1-c1ccc(OC)cc1C [compound 411]
- Test A control value (Magnaporthe grisea; [3]): L (50% or less control value)
- Test C control value (Alternaia brassicicola; [3]): L (50% or less control value)
- Test E control value (Puccinia recondita; [3]): H (more than 50% control value)
- Test F control value (Phytophthora infestans; [3]): L (50% or less control value)
- Test B control value (Botrytis cinerea; [3]): H (more than 50% control value)
- Test G control value (Plasmopara viticola; [4]): L (50% or less control value)
- Test H control value [1, 5]: L (50% or less control value)
- Test D control value [2, 3]: H (more than 50% control value)

Compound: CCCCCCc1ccc(=O)n(CC)c1-c1ccc(F)cc1Cl [compound 291]
- Test A control value (Magnaporthe grisea; [7]): L (50% or less control value)
- Test C control value (Alternaia brassicicola; [8]): L (50% or less control value)
- Test E control value (Puccinia recondita; [9]): H (more than 50% control value)
- Test F control value (Phytophthora infestans; [10]): L (50% or less control value)
- Test B control value (Botrytis cinerea; [11]): L (50% or less control value)
- Test G control value (Plasmopara viticola; [12]): L (50% or less control value)
- Test H control value [1, 13]: H (more than 50% control value)
- Test D control value [2, 14]: H (more than 50% control value)

Compound: CCn1c(-c2c(F)cc(F)cc2F)c(CN(C)C)cc(Cl)c1=O [compound 91]
- Test A control value class (Magnaporthe grisea; Blast on rice): L (50% or less control value)
- Test C control value class (Alternaia brassicicola; [6]): L (50% or less control value)
- Test E control value class (Puccinia recondita; Brown rust on wheat): H (more than 50% control value)
- Test F control value class (Phytophthora infestans; Late blight on tomato): L (50% or less control value)
- Test B control value class (Botrytis cinerea; Gray mold on tomato): L (50% or less control value)
- Test G control value class (Plasmopara viticola; 250 ppm spray): L (50% or less control value)
- Test H control value class ([1]; 250 ppm spray): H (more than 50% control value)
- Test D control value class ([2]; Powdery mildew on barley): L (50% or less control value)

Compound: CCC1=C(c2c(F)cc(F)cc2F)N(CC)C(=O)CC1 [compound 373]
- Test A control value (Magnaporthe grisea; [3]): L (50% or less control value)
- Test C control value (Alternaia brassicicola; [3]): H (more than 50% control value)
- Test E control value (Puccinia recondita; [3]): L (50% or less control value)
- Test F control value (Phytophthora infestans; [3]): L (50% or less control value)
- Test B control value (Botrytis cinerea; [3]): L (50% or less control value)
- Test G control value (Plasmopara viticola; [4]): L (50% or less control value)
- Test H control value [1, 5]: H (more than 50% control value)
- Test D control value [2, 3]: L (50% or less control value)

Compound: CCN(Cc1cc(Cl)c(=O)n(CC)c1-c1c(F)cc(F)cc1F)OC [compound 151]
- Test A control value class (Magnaporthe grisea; Blast on rice): H (more than 50% control value)
- Test C control value class (Alternaia brassicicola; [6]): H (more than 50% control value)
- Test E control value class (Puccinia recondita; Brown rust on wheat): H (more than 50% control value)
- Test F control value class (Phytophthora infestans; Late blight on tomato): L (50% or less control value)
- Test B control value class (Botrytis cinerea; Gray mold on tomato): H (more than 50% control value)
- Test G control value class (Plasmopara viticola; 250 ppm spray): H (more than 50% control value)
- Test H control value class ([1]; 250 ppm spray): H (more than 50% control value)
- Test D control value class ([2]; Powdery mildew on barley): H (more than 50% control value)

Compound: CCn1c(-c2c(O)cccc2F)c(CC(C)C)cc(Cl)c1=O [compound 101]
- Test A control value class (Magnaporthe grisea; Blast on rice): L (50% or less control value)
- Test C control value class (Alternaia brassicicola; [6]): L (50% or less control value)
- Test E control value class (Puccinia recondita; Brown rust on wheat): H (more than 50% control value)
- Test F control value class (Phytophthora infestans; Late blight on tomato): H (more than 50% control value)
- Test B control value class (Botrytis cinerea; Gray mold on tomato): H (more than 50% control value)
- Test G control value class (Plasmopara viticola; 250 ppm spray): H (more than 50% control value)
- Test H control value class ([1]; 250 ppm spray): L (50% or less control value)
- Test D control value class ([2]; Powdery mildew on barley): L (50% or less control value)
